# Assay results from patent US20240018161A1, “MODULATORS OF CYSTIC FIBROSIS TRANSMEMBRANE CONDUCTANCE REGULATOR” (VERTEX PHARMACEUTICALS INCORPORATED, priority 2020, published 2024).
# pEC50: −log10 of the molar value.
# Target: CFTR-mediated chloride transport in human intestinal epithelial enteroid cells (Homo sapiens, UniProt P13569)
# Assay: Membrane potential dye, Enteroid Assay A
# Format: cell-based
# Settings: for Ent. A Max Activity (%): percentage of chloride transport of triple combination control (3 μM N-[(6-amino-2-pyridyl)sulfonyl]-6-(3-fluoro-5-isobutoxy-phenyl)-2-[(4S)-2,2,4-trimethylpyrrolidin-1-yl]pyridine-3-carboxamide based); for pEC50: enteroid cells incubated with test compound 18-24 hours, acute 10 μM forskolin and 300 nM N-[2,4-bis(1,1-dimethylethyl)-5-hydroxyphenyl]-1,4-dihydro-4-oxoquinoline-3-carboxamide, read-out: Ent. A EC50
# How it was run: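 Membrane potential dye (20 μM methyl oxonol, with 30 μM CaCCinh-A01 and 30 μM Chicago Sky Blue) loaded 25 min at room temperature into ROCK-inhibitor-seeded human enteroid cells. Chloride-free stimulation buffer triggered transport, followed by 15 min fluorescence. % Activity relative to 3 μM/3 μM/300 nM triple-combination control.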
# CFTR-mediated chloride transport in human intestinal epithelial enteroid cells, sequence (P13569 with tags, fused parts or gaps DEL508-508): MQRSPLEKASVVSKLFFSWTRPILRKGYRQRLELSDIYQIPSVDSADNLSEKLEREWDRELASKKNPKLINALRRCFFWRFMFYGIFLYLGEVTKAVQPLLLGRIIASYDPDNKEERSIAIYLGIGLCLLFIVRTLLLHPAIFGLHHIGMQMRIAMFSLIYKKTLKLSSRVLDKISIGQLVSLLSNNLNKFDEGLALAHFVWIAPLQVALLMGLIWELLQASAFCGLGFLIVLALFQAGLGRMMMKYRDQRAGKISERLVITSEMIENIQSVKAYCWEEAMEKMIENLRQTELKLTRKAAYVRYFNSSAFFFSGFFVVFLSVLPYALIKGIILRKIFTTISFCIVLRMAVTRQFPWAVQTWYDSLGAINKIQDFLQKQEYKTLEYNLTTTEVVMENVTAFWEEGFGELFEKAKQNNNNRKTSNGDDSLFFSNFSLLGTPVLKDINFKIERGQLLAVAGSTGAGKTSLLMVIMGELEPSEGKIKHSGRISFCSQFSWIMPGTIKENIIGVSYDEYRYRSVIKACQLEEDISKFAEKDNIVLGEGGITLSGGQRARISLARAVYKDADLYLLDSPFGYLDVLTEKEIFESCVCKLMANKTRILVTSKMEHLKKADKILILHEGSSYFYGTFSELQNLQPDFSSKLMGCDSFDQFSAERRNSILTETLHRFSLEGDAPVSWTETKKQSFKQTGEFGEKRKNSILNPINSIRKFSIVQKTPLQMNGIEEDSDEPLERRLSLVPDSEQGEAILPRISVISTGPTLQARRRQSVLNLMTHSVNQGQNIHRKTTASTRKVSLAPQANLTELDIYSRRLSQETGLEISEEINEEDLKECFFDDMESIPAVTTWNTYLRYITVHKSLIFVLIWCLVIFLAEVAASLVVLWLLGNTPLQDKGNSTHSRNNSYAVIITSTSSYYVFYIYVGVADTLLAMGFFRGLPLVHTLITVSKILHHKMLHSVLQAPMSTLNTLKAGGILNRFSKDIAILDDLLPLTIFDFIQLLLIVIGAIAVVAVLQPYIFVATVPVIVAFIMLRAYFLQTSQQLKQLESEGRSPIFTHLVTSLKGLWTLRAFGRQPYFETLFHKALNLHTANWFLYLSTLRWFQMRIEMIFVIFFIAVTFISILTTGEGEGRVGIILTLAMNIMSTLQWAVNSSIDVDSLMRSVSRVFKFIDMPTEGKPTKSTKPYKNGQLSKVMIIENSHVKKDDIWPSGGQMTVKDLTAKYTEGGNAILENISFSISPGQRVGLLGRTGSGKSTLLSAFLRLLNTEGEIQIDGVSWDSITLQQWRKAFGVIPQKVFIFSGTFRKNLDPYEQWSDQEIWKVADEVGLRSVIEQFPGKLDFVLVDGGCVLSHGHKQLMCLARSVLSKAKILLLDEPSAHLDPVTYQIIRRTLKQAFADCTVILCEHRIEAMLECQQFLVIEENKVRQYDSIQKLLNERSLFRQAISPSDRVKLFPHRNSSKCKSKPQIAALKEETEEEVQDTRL
SMILES,pEC50,Ent. A Max Activity (%)
Cc1cccc(C)c1-c1cc2nc(n1)NS(=O)(=O)c1cccc(c1)C(=O)N1CCN(Cc3cocn3)C[C@@H]1CO2 [Compound 283],–,++ (++ is 30-60%)
Cc1cccc(C)c1-c1cc2nc(n1)NS(=O)(=O)c1cccc(c1)C(=O)N1CCN(Cc3c[nH]cn3)C[C@@H]1CO2 [Compound 284],–,+ (+ is <300%)
Cc1cccc(C)c1-c1cc2nc(n1)NS(=O)(=O)c1cccc(c1)C(=O)N1CCN(Cc3ccn(C)n3)C[C@@H]1CO2 [Compound 285],–,++ (++ is 30-60%)
Cc1cccc(C)c1-c1cc2nc(n1)NS(=O)(=O)c1cccc(c1)C(=O)N1CCN(Cc3ncccn3)C[C@@H]1CO2 [Compound 286],–,+ (+ is <300%)
Cc1cccc(C)c1-c1cc2nc(n1)NS(=O)(=O)c1cccc(c1)C(=O)N1CCN(Cc3ccnnc3)C[C@@H]1CO2 [Compound 287],–,+ (+ is <300%)
Cc1cccc(C)c1-c1cc2nc(n1)NS(=O)(=O)c1cccc(c1)C(=O)N1CCN(Cc3ccn[nH]3)C[C@@H]1CO2 [Compound 288],–,+ (+ is <300%)
Cc1cccc(C)c1-c1cc2nc(n1)NS(=O)(=O)c1cccc(c1)C(=O)N1CCN(C(=O)NCc3ccccc3)C[C@@H]1CO2 [Compound 289],–,+ (+ is <300%)
Cc1cccc(C)c1-c1cc2nc(n1)NS(=O)(=O)c1cccc(c1)C(=O)N1CCN(C(=O)NC34CC5CC(CC(C5)C3)C4)C[C@@H]1CO2 [Compound 290],5.52 to 6.00,++ (++ is 30-60%)
Cc1cccc(C)c1-c1cc2nc(n1)NS(=O)(=O)c1cccc(c1)C(=O)N1CCN(C(=O)NC(C)(C)C)C[C@@H]1CO2 [Compound 291],–,+++ (+++ is >60%)
Cc1cccc(C)c1-c1cc2nc(n1)NS(=O)(=O)c1cccc(c1)C(=O)N1CCN(C(=O)NC(C)C(C)C)C[C@@H]1CO2 (stereo partly drawn) [Compound 292],–,++ (++ is 30-60%)
CC(=O)NCCN1CCN2C(=O)c3cccc(c3)S(=O)(=O)Nc3nc(cc(-c4c(C)cccc4C)n3)OC[C@H]2C1 [Compound 294],4.52 to 5.52,++ (++ is 30-60%)
Cc1cccc(C)c1-c1cc2nc(n1)NS(=O)(=O)c1cccc(c1)C(=O)N1CCN(CC3CCOCC3)C[C@@H]1CO2 [Compound 295],5.52 to 6.00,+++ (+++ is >60%)
Cc1cccc(C)c1-c1cc2nc(n1)NS(=O)(=O)c1cccc(c1)C(=O)N1CCN(CCCC(C)(C)C)C[C@@H]1CO2 [Compound 296],> 6.00,+++ (+++ is >60%)
Cc1cccc(C)c1-c1cc2nc(n1)NS(=O)(=O)c1cccc(c1)C(=O)N1CCN(CC3CCCCC3)C[C@@H]1CO2 [Compound 297],> 6.00,+++ (+++ is >60%)
Cc1cccc(C)c1-c1cc2nc(n1)NS(=O)(=O)c1cccc(c1)C(=O)N1CCN(CCc3ccccc3)C[C@@H]1CO2 [Compound 299],> 6.00,++ (++ is 30-60%)
Cc1cccc(C)c1-c1cc2nc(n1)NS(=O)(=O)c1cccc(c1)C(=O)N1CCCC1CO2 (stereo not drawn) [Compound 301],–,+ (+ is <300%)
Cc1cccc(C)c1-c1cc2nc(n1)NS(=O)(=O)c1cccc(c1)C(=O)N1CCN(C(=O)CCN3CCCC3)C(CO2)C1 (stereo not drawn) [Compound 303],–,+ (+ is <300%)
Cc1cccc(C)c1-c1cc2nc(n1)NS(=O)(=O)c1cccc(c1)C(=O)N1CCN(C(=O)CC(C)(C)C)C(CO2)C1 (stereo not drawn) [Compound 304],–,++ (++ is 30-60%)
Cc1cccc(C)c1-c1cc2nc(n1)NS(=O)(=O)c1cccc(c1)C(=O)N1CCN(C(=O)CN(C)C)CC1CO2 (stereo not drawn) [Compound 305],–,+ (+ is <300%)
Cc1cccc(C)c1-c1cc2nc(n1)NS(=O)(=O)c1cccc(c1)C(=O)N1CCN(C(=O)CCN3CCCC3=O)CC1CO2 (stereo not drawn) [Compound 306],–,+ (+ is <300%)
Cc1cccc(C)c1-c1cc2nc(n1)NS(=O)(=O)c1cccc(c1)C(=O)N1CCN(C(=O)CCN3CCCC3)CC1CO2 (stereo not drawn) [Compound 308],–,+ (+ is <300%)
Cc1cccc(C)c1-c1cc2nc(n1)NS(=O)(=O)c1cccc(c1)C(=O)N1CCN(C)C(CO2)C1 (stereo not drawn) [Compound 316],–,+ (+ is <300%)
Cc1cccc(C)c1-c1cc2nc(n1)NS(=O)(=O)c1cccc(c1)C(=O)N1Cc3ccccc3[C@@H](C1)O2 [Compound 318],–,+ (+ is <300%)
Cc1cccc(C)c1-c1cc2nc(n1)NS(=O)(=O)c1cccc(c1)C(=O)N1CCC[C@@H](C1)O2 [Compound 335],–,+ (+ is <300%)
Cc1cccc(C)c1-c1cc2nc(n1)NS(=O)(=O)c1cccc(c1)C(=O)N1CCC[C@H](C1)O2 [Compound 336],–,+ (+ is <300%)
CC(C)Oc1cccc(-c2cc3nc(n2)NS(=O)(=O)c2cccc(c2)C(=O)N2Cc4ccccc4C(C2)O3)c1 (stereo not drawn) [Compound 338],–,+ (+ is <300%)
Cc1cccc(C)c1-c1cc2nc(n1)NS(=O)(=O)c1cccc(c1)CCC(=O)N1Cc3ccccc3C(C1)O2 (stereo not drawn) [Compound 345],–,+ (+ is <300%)
Cc1cccc(C)c1-c1cc2nc(n1)NS(=O)(=O)c1cnn(c1)CCC(=O)N1Cc3ccccc3C(C1)O2 (stereo not drawn) [Compound 346],–,+ (+ is <300%)

# Second part, led by results:
pEC50,SMILES,Ent. A Max Activity (%)
4.52 to 5.52,Cc1cccc(C)c1-c1cc2nc(n1)NS(=O)(=O)c1cccc(c1)C(=O)N1CCN(C(=O)CC(C)(C)C)CC1CO2 (stereo not drawn) [Compound 307],++ (++ is 30-60%)
> 6.00,Cc1cccc(C)c1-c1cc2nc(n1)NS(=O)(=O)c1cccc(c1)C(=O)N1CCN(CC3CCCCC3)CC1CO2 (stereo not drawn) [Compound 309],++ (++ is 30-60%)
> 6.00,Cc1cccc(C)c1-c1cc2nc(n1)NS(=O)(=O)c1cccc(c1)C(=O)N1CCN(CCC(C)(C)C)CC1CO2 (stereo not drawn) [Compound 310],++ (++ is 30-60%)
> 6.00,Cc1cccc(C)c1-c1cc2nc(n1)NS(=O)(=O)c1cccc(c1)C(=O)N1CCN(CCc3ccccc3)CC1CO2 (stereo not drawn) [Compound 311],++ (++ is 30-60%)
5.52 to 6.00,Cc1cccc(C)c1-c1cc2nc(n1)NS(=O)(=O)c1cccc(c1)C(=O)N1CCN(CC3CCOCC3)CC1CO2 (stereo not drawn) [Compound 312],++ (++ is 30-60%)
> 6.00,Cc1cccc(C)c1-c1cc2nc(n1)NS(=O)(=O)c1cccc(c1)C(=O)N1CCN(CCCC(C)(C)C)CC1CO2 (stereo not drawn) [Compound 313],+++ (+++ is >60%)
> 6.00,Cc1cccc(C)c1-c1cc2nc(n1)NS(=O)(=O)c1cccc(c1)C(=O)N1CCN(CCC3(C(F)(F)F)CC3)C(CO2)C1 (stereo not drawn) [Compound 314],+++ (+++ is >60%)
> 6.00,Cc1cccc(C)c1-c1cc2nc(n1)NS(=O)(=O)c1cccc(c1)C(=O)N1CCN(C(=O)OC(C)(C)C)C[C@@H]1CO2 [Compound 315],++ (++ is 30-60%)
> 6.00,Cc1cccc(C)c1-c1cc2nc(n1)NS(=O)(=O)c1cccc(c1)C(=O)N1CCC(c3ccccc3)C(C1)O2 (stereo not drawn) [Compound 317],+++ (+++ is >60%)
5.52 to 6.00,Cc1cccc(C)c1-c1cc2nc(n1)NS(=O)(=O)c1cccc(c1)C(=O)N1CC(NC(=O)OC(C)(C)C)CC(C1)O2 (stereo not drawn) [Compound 320],++ (++ is 30-60%)
> 6.00,Cc1cccc(C)c1-c1cc2nc(n1)NS(=O)(=O)c1cccc(c1)C(=O)N1CC(CC(C(=O)NCCC(C)(C)C)C1)O2 (stereo not drawn) [Compound 321],++ (++ is 30-60%)
> 6.00,Cc1cccc(C)c1-c1cc2nc(n1)NS(=O)(=O)c1cccc(c1)C(=O)N1CCN(C(=O)OC(C)(C)C)C(CO2)C1 (stereo not drawn) [Compound 322],++ (++ is 30-60%)
4.52 to 5.52,Cc1cccc(C)c1-c1cc2nc(n1)NS(=O)(=O)c1cccc(c1)C(=O)N1CC(O2)C(N2CCOCC2)C1 (stereo not drawn) [Compound 323],++ (++ is 30-60%)
4.52 to 5.52,Cc1cccc(C)c1-c1cc2nc(n1)NS(=O)(=O)c1cccc(c1)C(=O)N1CCN(C)CC1CO2 (stereo not drawn) [Compound 324],++ (++ is 30-60%)
> 6.00,Cc1cccc(C)c1-c1cc2nc(n1)NS(=O)(=O)c1cccc(c1)C(=O)N1Cc3ccccc3C(C1)O2 (stereo not drawn) [Compound 325],+++ (+++ is >60%)
4.52 to 5.52,Cc1cccc(C)c1-c1cc2nc(n1)NS(=O)(=O)c1cccc(c1)C(=O)N1CCCC(C1)O2 (stereo not drawn) [Compound 326],+ (+ is <300%)
5.52 to 6.00,Cc1cccc(C)c1-c1cc2nc(n1)NS(=O)(=O)c1cccc(c1)NC(=O)[C@@H]1CNCCN1c1cccc(c1)O2 [Compound 334],+++ (+++ is >60%)
> 6.00,CC(C)CCc1ccccc1-c1cc2nc(n1)NS(=O)(=O)c1cccc(c1)C(=O)N1Cc3ccccc3C(C1)O2 (stereo not drawn) [Compound 337],++ (++ is 30-60%)
4.52 to 5.52,Cc1cccc(C)c1-c1cc2nc(n1)NS(=O)(=O)c1cc(n(C)n1)C(=O)N1Cc3ccccc3[C@H](C1)O2 [Compound 340],+ (+ is <300%)
4.52 to 5.52,Cc1cccc(C)c1-c1cc2nc(n1)NS(=O)(=O)c1cc(n(C)n1)C(=O)N1Cc3ccccc3[C@H](C1)O2 [Compound 341],++ (++ is 30-60%)
5.52 to 6.00,Cc1cccc(C)c1-c1cc2nc(n1)NS(=O)(=O)c1cc(ccn1)C(=O)N1Cc3ccccc3C(C1)O2 (stereo not drawn) [Compound 343],++ (++ is 30-60%)
> 6.00,Cc1cccc(C)c1-c1cc2nc(n1)NS(=O)(=O)c1cccc(c1)CN1CC(COCC(C)(C)C)CC(C1)O2 (stereo not drawn) [Compound 344],++ (++ is 30-60%)
